Experimental data taken from patent US9132103B2, “Disinfecting agent comprising eugenol, terpineol and thymol” (Conopco, Inc., priority 2009, dated 2015).

Test system: E. coli ATCC 10536
Experiment: Bacterial kill after 15 seconds of contact (viable E. coli count by neutralization, serial dilution and plating)
Assay type: cell-based
Conditions: log10 of viable E. coli remaining after 15 seconds of contact; about 10^7 cells; water carrier; Table 2
Procedure: About 10^7 bacterial cells (E. coli ATCC 10536) were taken in a test tube and contacted with various compositions for a period of 15 seconds. Bacteria were taken out after 15 seconds of contact and presence of viable cells was determined by neutralization of the antimicrobial, serial dilution and plating on agar plates. The data is presented in Table-1 as log (Viable E. Coli) which is the log10 of the number of viable E. coli remaining after 15 seconds of contact. Thus if 10^4 remained, log (Viable E. coli) is 4.
The data in Table-1 is an average result of four experiments.
Various compositions as shown in Table-2 were prepared using the same procedure as used for examples 1 to 3 and the antibacterial efficacy was evaluated using the same procedure as used to evaluate Examples 1 to 3. The data on antibacterial efficacy is represented in Table-2.
Compositions as summarized in Table-3 were prepared using a similar procedure as used for Examples 1 to 3 and the antibacterial efficacy was evaluated using a procedure similar to that used for Examples 1 to 3.
The various compositions were diluted with water in a ratio of composition:water of 1:400 and then tested for antibacterial efficacy. The procedure used was similar to that used for Examples 1 to 3.
Soap bar compositions were prepared as per conventional procedure for preparing milled and plodded soap bars. […]

| Compound | Log (Viable E. coli) |
| --- | --- |
| Terpineol [Example 7] | 6.5 |
| Cc1ccc(C(C)C)c(O)c1 [Example 6, Thymol] | 6.5 |
